Test results taken from patent US20150005288A1, “SUBSTITUTED PHENYLIMIDAZOPYRAZOLES AND USE THEREOF” (Bayer Intellectual Property GmbH, priority 2012, published 2015).
Structures can show the parent of a compound that is named as a salt.

Molecular target: T1, intracellular domain of human Tie2 (GST fusion protein) (Homo sapiens, UniProt Q02763)
T1 construct: intracellular domain of human Tie2 (amino acids 776-1124); made in house; host or cells: Baculovirus-infected insect cells (Hi5)
Assay: Tie2 kinase assay (Tie2-TR-FRET)
Assay type: biochemical
Details: ATP concentration 1 mM, in some cases means of several independent determinations
Experimental: The Tie2-inhibitory activity of the substances according to the invention was determined with the aid of one of the Tie2-TR-FRET assays described in the sections below at an ATP concentration of 1 mM (TR-FRET=Time-Resolved Fluorescence Resonance Energy Transfer):
The enzyme used was a recombinant fusion protein of glutathione S-transferase (GST) and the intracellular domain of human Tie2 (amino acids 776-1124) which was expressed in Baculovirus-infected insect cells (Hi5) and was purified by affinity chromatography on glutathione-Sepharose. Alternatively, it is also possible to use commercially available GST-His6-Tie2 fusion protein (ProQinase GmbH, Freiburg im Breisgau, Germany). The substrate used for the kinase reaction was the biotinylated peptide biotin-Ahx-[…] (C-terminus in amide form) which is commercially available (for example from Biosyntan, Berlin, Germany).
For the assay, 50 nl of a 100-fold concentrated solution of the respective test substance in DMSO were pipetted into a black low-volume 384-well microtitre plate (Greiner Bio-One, Frickenhausen, Germany) 2 μl of a solution of the Tie2 fusion protein in assay buffer [50 mM HEPES/HCl pH 7, 10 mM MgCl2, 2.5 mM MnCl2, 1 mM dithiothreitol, 0.01% (v/v) Nonidet P-40, 0.1% (w/v) bovine serum albumin (BSA), 1× Complete EDTA-free protease inhibitor mixture (Roche)] were added, and the mixture was incubated for 15 min to allow pre-binding of the substance to the enzyme prior to the kinase reaction. The kinase reaction was then started by adding 3 μl of a solution of adenosine triphosphate (ATP, 1.67 mM→final concentration in 5 μl assay volume=1 mM) and substrate (1.67 μM→final concentration in 5 μl assay volume=1 μM) in assay buffer, and the resulting mixture was incubated for a reaction time of 60 min at 22° C. The concentration of the Tie2 fusion protein was adapted to the respective activity of the enzyme and adjusted such that the assay was carried out in the linear range. Typical concentrations were in the range of 30 ng/ml.
The reaction was stopped by addition of 5 μl of a solution of TR-FRET detection reagents [200 nM streptavidin-XL665 and 2 nM PT66-Eu chelate, a europium chelate-labelled anti-phosphotyrosine antibody (Perkin-Elmer); alternatively, it is also possible to use PT66-Tb cryptate (Cisbio Bioassays, Codolet, France)] in aqueous EDTA solution[90 mM EDTA, 0.28% (w/v) bovine serum albumin (BSA) in 50 mM HEPES pH 7.5]. The resulting mixture was incubated at 22° C. for 1 h to allow formation of the complex of the biotinylated phosphorylated substrate and the detection reagents. The amount of phosphorylated substrate was then determined by measuring the resonance energy transfer from PT66-Eu chelate to streptavidin-XL665. To this end, the fluorescence emissions at 620 nm and 665 nm after excitation at 350 nm were measured in a TR-FRET measuring instrument (for example Viewlux, Perkin-Elmer). The ratio of the emissions at 665 nm and at 620 nm was taken as a measure of the amount of phosphorylated substrate.
Usually, the test substance in question was tested on the same microtitre plate at […] different concentrations in the range from 20 μM to 0.073 nM (for example at 20 μM, 5.7 μM, 1.6 μM, 0.47 μM, 0.13 μM, 38 nM, 11 nM, 3.1 nM, 0.89 nM, 0.25 nM and 0.073 nM) in duplicate for each concentration. The dilution series were prepared prior to the assay at the stage of the 100-fold concentrated solution by serial dilution (the exact concentrations may vary depending on the pipettors used in each case). IC50 values were calculated using a 4-parameter fit, with the aid of inhouse software.
Table 1 below lists the IC50 values from this assay for individual working examples (in some cases as means of several independent individual determinations): […]

T1 sequence (Q02763 776-1124): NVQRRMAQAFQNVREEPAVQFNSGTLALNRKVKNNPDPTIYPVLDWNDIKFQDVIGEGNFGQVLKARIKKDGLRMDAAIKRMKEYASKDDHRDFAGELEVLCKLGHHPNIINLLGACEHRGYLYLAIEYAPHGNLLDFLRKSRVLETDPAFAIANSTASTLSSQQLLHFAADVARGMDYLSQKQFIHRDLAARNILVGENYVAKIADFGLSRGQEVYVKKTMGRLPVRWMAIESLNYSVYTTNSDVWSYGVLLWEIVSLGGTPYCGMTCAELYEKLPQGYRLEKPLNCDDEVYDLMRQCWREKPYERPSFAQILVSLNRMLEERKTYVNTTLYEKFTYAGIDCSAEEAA

With `Cc1ccc(NC(=O)c2cc(OCCN)cc(S(F)(F)(F)(F)F)c2)cc1-n1ccn2nc(-c3cccnc3)cc12` [Example 22, 3-(2-Aminoethoxy)-N-{4-methyl-3-[6-(pyridin-3-yl)-1H-imidazo[1,2-b]pyrazol-1-yl]phenyl}-5-(pentafluoro-λ^6-sulphanyl)benzamide] as the compound, how does the IC50 read?
The IC50 was 0.6 nM.

Which IC50 does the source give for `Cc1cc(C)c(-n2ccn3nc(-c4cccnc4)cc23)cc1NC(=O)c1cc(N2CCCCC2)cc(S(F)(F)(F)(F)F)c1` [Example 143, N-{2,4-Dimethyl-5-[6-(pyridin-3-yl)-1H-imidazo[1,2-b]pyrazol-1-yl]phenyl}-3-(pentafluoro-λ^6-sulphanyl)-5-(piperidin-1-yl)benzamide] here?
The IC50 was 1.3 nM.

For `Cc1ccc(NC(=O)c2cc(Br)cc(S(F)(F)(F)(F)F)c2)cc1-n1ccn2nc(-c3cccnc3)cc12` [Example 89, 3-Bromo-N-{4-methyl-3-[6-(pyridin-3-yl)-1H-imidazo[1,2-b]pyrazol-1-yl]phenyl}-5-(pentafluoro-λ^6-sulphanyl)benzamide], which IC50 is on record?
The IC50 was 2.3 nM.

`Cc1cc(C)c(-n2ccn3nc(-c4cccnc4)cc23)cc1NC(=O)c1cc(C#N)cc(S(F)(F)(F)(F)F)c1` [Example 147, 3-Cyano-N-{2,4-dimethyl-5-[6-(pyridin-3-yl)-1H-imidazo[1,2-b]pyrazol-1-yl]phenyl}-5-(pentafluoro-λ^6-sulphanyl)benzamide dihydrochloride] was tested. Which IC50 did it give?
The IC50 was 0.2 nM.

How did the IC50 turn out when `Cc1ccc(NC(=O)c2cccc(-n3cccn3)c2)cc1-n1ccn2nc(-c3cccnc3)cc12` [Example 55, N-{4-Methyl-3-[6-(pyridin-3-yl)-1H-imidazo[1,2-b]pyrazol-1-yl]phenyl}-3-(1H-pyrazol-1-yl)-benzamide] was run?
The IC50 was 275 nM.

Which IC50 does the source give for `Cc1ccc(NC(=O)c2cc(C#N)cc(S(F)(F)(F)(F)F)c2)cc1-n1ccn2nc(-c3cccnc3)c(F)c12` [Example 159, 3-Cyano-N-{3-[7-fluoro-6-(pyridin-3-yl)-1H-imidazo[1,2-b]pyrazol-1-yl]-4-methylphenyl}-5-(pentafluoro-λ^6-sulphanyl)benzamide] here?
Its IC50 is 10 nM.

`Cc1ccc(NC(=O)c2cc(OC3CCNC3)cc(S(F)(F)(F)(F)F)c2)cc1-n1ccn2nc(-c3cccnc3)cc12` (stereo not shown) [Example 25, N-{4-Methyl-3-[6-(pyridin-3-yl)-1H-imidazo[1,2-b]pyrazol-1-yl]phenyl}-3-(pentafluoro-λ^6-sulphanyl)-5-(pyrrolidin-3-yloxy)benzamide] was tested. Which IC50 did it give?
The IC50 was 1.9 nM.

For `Cc1ccc(NC(=O)c2cc(OC3CNC3)cc(S(F)(F)(F)(F)F)c2)cc1-n1ccn2nc(-c3cccnc3)cc12` [Example 24, 3-(Azetidin-3-yloxy)-N-{4-methyl-3-[6-(pyridin-3-yl)-1H-imidazo[1,2-b]pyrazol-1-yl]phenyl}-5-(pentafluoro-λ^6-sulphanyl)benzamide], which IC50 is on record?
The IC50 was 0.8 nM.

With `Cc1ccc(NC(=O)c2cc(CN3CCCC3)cc(C(C)(C)C)c2)cc1-n1ccn2nc(-c3cn[nH]c3)cc12` [Example 9, 3-tert-Butyl-N-{4-methyl-3-[6-(1H-pyrazol-4-yl)-1H-imidazo[1,2-b]pyrazol-1-yl]phenyl}-5-(pyrrolidin-1-ylmethyl)benzamide] as the compound, how does the IC50 read?
The IC50 was 6.7 nM.

Which IC50 does the source give for `Cc1cc(C)c(-n2ccn3nc(-c4cccnc4)cc23)cc1NC(=O)c1cccc(OC(C)C)c1` [Example 132, N-{2,4-Dimethyl-5-[6-(pyridin-3-yl)-1H-imidazo[1,2-b]pyrazol-1-yl]phenyl}-3-isopropoxybenzamide] here?
The IC50 was 4.6 nM.

Which IC50 does the source give for `Cc1c(F)cc(NC(=O)c2cccc(S(F)(F)(F)(F)F)c2)cc1-n1ccn2nc(-c3cccnc3)cc12` [Example 103, N-{3-Fluoro-4-methyl-5-[6-(pyridin-3-yl)-1H-imidazo[1,2-b]pyrazol-1-yl]phenyl}-3-(pentafluoro-λ^6-sulphanyl)benzamide] here?
The IC50 was 130 nM.

How did the IC50 turn out when `Cc1cc(C)c(-n2ccn3nc(-c4cccnc4)cc23)cc1NC(=O)c1cccc(OC(F)F)c1` [Example 128, N-{2,4-Dimethyl-5-[6-(pyridin-3-yl)-1H-imidazo[1,2-b]pyrazol-1-yl]phenyl}-3-(difluoromethoxy)-benzamide] was run?
The IC50 was 43 nM.

With `Cc1cc(C)c(-n2ccn3nc(-c4cccnc4)cc23)cc1NC(=O)c1cc(C(C)(C)O)cc(S(F)(F)(F)(F)F)c1` [Example 148, N-{2,4-Dimethyl-5-[6-(pyridin-3-yl)-1H-imidazo[1,2-b]pyrazol-1-yl]phenyl}-3-(2-hydroxypropan-2-yl)-5-(pentafluoro-λ^6-sulphanyl)benzamide] as the compound, how does the IC50 read?
The IC50 was 0.4 nM.

With `Cc1ccc(NC(=O)c2cccc(N3CCCC3)c2)cc1-n1ccn2nc(-c3cccnc3)cc12` [Example 56, N-{4-Methyl-3-[6-(pyridin-3-yl)-1H-imidazo[1,2-b]pyrazol-1-yl]phenyl}-3-(pyrrolidin-1-yl)-benzamide] as the compound, how does the IC50 read?
Its IC50 is 52 nM.

How did the IC50 turn out when `Cc1ccc(NC(=O)c2cc(C(F)(F)F)cc(C(F)(F)F)c2)cc1-n1ccn2nc(-c3cccnc3)cc12` [Example 43, N-{4-Methyl-3-[6-(pyridin-3-yl)-1H-imidazo[1,2-b]pyrazol-1-yl]phenyl}-3,5-bis(trifluoromethyl)-benzamide] was run?
The IC50 was 56 nM.

How did the IC50 turn out when `Cc1ccc(NC(=O)c2cc(C(C)C)ccc2O)cc1-n1ccn2nc(-c3cccnc3)cc12` [Example 53, 2-Hydroxy-N-{4-methyl-3-[6-(pyridin-3-yl)-1H-imidazo[1,2-b]pyrazol-1-yl]phenyl}-5-(propan-2-yl)benzamide] was run?
Its IC50 is 340 nM.

How did the IC50 turn out when `Cc1cc(C)c(-n2ccn3nc(-c4cccnn4)cc23)cc1NC(=O)c1cc(C#N)cc(S(F)(F)(F)(F)F)c1` [Example 171, 3-Cyano-N-{2,4-dimethyl-5-[6-(pyridazin-3-yl)-1H-imidazo[1,2-b]pyrazol-1-yl]phenyl}-5-(pentafluoro-λ^6-sulphanyl)benzamide] was run?
Its IC50 is 0.3 nM.

`Cc1cc(C)c(-n2ccn3nc(-c4cccnc4)cc23)cc1NC(=O)c1cccc(OC(F)(F)F)c1` [Example 127, N-{2,4-Dimethyl-5-[6-(pyridin-3-yl)-1H-imidazo[1,2-b]pyrazol-1-yl]phenyl}-3-(trifluoromethoxy)benzamide] was tested. Which IC50 did it give?
Its IC50 is 1.4 nM.

How did the IC50 turn out when `Cc1cc(C)c(-n2ccn3nc(-c4cccnc4)cc23)cc1NC(=O)c1cccc(C2(C)COC2)c1` [Example 140, N-{2,4-Dimethyl-5-[6-(pyridin-3-yl)-1H-imidazo[1,2-b]pyrazol-1-yl]phenyl}-3-(3-methyloxetan-3-yl)benzamide] was run?
Its IC50 is 0.5 nM.

`Cc1ccc(NC(=O)c2cc(CN3CCCC3)cc(S(F)(F)(F)(F)F)c2)cc1-n1ccn2nc(-c3cccnc3)cc12` [Example 33, N-{4-Methyl-3-[6-(pyridin-3-yl)-1H-imidazo[1,2-b]pyrazol-1-yl]phenyl}-3-(pentafluoro-λ^6-sulphanyl)-5-(pyrrolidin-1-ylmethyl)benzamide] was tested. Which IC50 did it give?
The IC50 was 2.5 nM.

With `Cc1ccc(NC(=O)c2cc(C(C)(C)O)cc(S(F)(F)(F)(F)F)c2)cc1-n1ccn2nc(-c3cccnc3)c(F)c12` [Example 160, N-{3-[7-Fluoro-6-(pyridin-3-yl)-1H-imidazo[1,2-b]pyrazol-1-yl]-4-methylphenyl}-3-(2-hydroxypropan-2-yl)-5-(pentafluoro-λ^6-sulphanyl)benzamide] as the compound, how does the IC50 read?
Its IC50 is 1 nM.

`Cc1cc(C)c(-n2ccn3nc(-c4cccnc4)cc23)cc1NC(=O)c1cc(Br)cc(C(C)(C)C)c1` [Example 113, 3-Bromo-5-tert-butyl-N-{2,4-dimethyl-5-[6-(pyridin-3-yl)-1H-imidazo[1,2-b]pyrazol-1-yl]-phenyl}benzamide] was tested. Which IC50 did it give?
The IC50 was 0.6 nM.
